{
  "source": "patent US10973810B2",
  "about": "“Methods for the treatment of neurological disorders” (Yumanity Therapeutics, Inc., priority 2017, dated 2021)",
  "type_in_all_cases": "cell-based",
  "key": {"[1]": {"biological_target": "T1, human SCD1 (Homo sapiens, UniProt O00767)", "T1 construct": "host or cells: S. cerevisiae ole1Δ strain (W303 pdr1Δ pdr3Δ background), plasmid pRS316 with TDH3 promoter and CYC1 terminator", "T1 sequence (O00767 1-359)": "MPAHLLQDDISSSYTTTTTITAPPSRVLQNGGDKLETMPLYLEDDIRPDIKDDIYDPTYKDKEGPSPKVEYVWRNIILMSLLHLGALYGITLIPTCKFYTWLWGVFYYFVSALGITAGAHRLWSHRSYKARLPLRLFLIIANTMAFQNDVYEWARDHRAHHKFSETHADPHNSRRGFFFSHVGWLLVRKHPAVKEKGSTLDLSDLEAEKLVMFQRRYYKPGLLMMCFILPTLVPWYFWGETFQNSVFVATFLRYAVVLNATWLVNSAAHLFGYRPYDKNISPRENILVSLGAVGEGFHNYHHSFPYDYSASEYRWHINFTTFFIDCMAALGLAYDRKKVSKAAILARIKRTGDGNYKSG", "test": "Growth of humanized yeast surviving solely on human SCD1", "details": "growth inhibition", "excerpt": "The coding sequence of yeast OLE1 was also cloned into this plasmid). These clones were then transformed into the ole1d strain and plated on CSM-Ura media (CSM lacking uracil) with 2% glucose (w/v) and independent colonies were isolated and amplified.\n(§1) For experiments using a plasmid-borne copy of Ole1, SCD1, or SCD5 (FIGS. 3B, 6, and 7), media lacking uracil (SX-Ura, where X is glucose, raffinose, or galactose), was used for all steps of the compound profiling protocol to ensure its maintenance throughout the assay.\nAfter yeast delivery, assay plates were incubated under humidified conditions at 30° C. for 24 to 40 h. ApoE4 rescue experiments were stopped at 24 h, aSyn experiments at 40 h, Ole1 at 24 h, and SCD1/SCD5 at 40 h. The growth of yeast was monitored by reading the OD600 of each well using a microplate reader (Perkin Elmer EnVision™)."}, "[2]": {"biological_target": "T2, human SCD5 (Homo sapiens, UniProt Q86SK9)", "T2 construct": "host or cells: S. cerevisiae ole1Δ strain (W303 pdr1Δ pdr3Δ background), plasmid pRS316 with TDH3 promoter and CYC1 terminator", "T2 sequence (Q86SK9 1-330)": "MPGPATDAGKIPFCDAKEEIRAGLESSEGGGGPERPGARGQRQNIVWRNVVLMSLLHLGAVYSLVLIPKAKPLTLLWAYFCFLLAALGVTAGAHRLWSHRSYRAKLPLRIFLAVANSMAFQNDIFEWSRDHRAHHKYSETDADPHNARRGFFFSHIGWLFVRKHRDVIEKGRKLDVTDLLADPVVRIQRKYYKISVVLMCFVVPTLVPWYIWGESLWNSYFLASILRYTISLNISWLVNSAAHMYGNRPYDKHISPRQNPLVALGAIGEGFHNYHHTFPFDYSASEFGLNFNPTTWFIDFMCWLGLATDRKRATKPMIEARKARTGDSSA", "test": "Growth of humanized yeast surviving solely on human SCD5", "details": "growth inhibition", "excerpt": "To generate yeast strains expressing SCD1 or SCD5 as the sole desaturase, the human SCD1 and SCD5 genes were cloned from cDNAs (Harvard PlasmID database Clone ID HsCD00340237 for SCD1 and HsCD00342695 for SCD5) into yeast plasmid pRS316 (ATCC 77145) between the yeast TDH3 promoter and the CYC1 terminator. The coding sequence of yeast OLE1 was also cloned into this plasmid). These clones were then transformed into the ole1d strain and plated on CSM-Ura media (CSM lacking uracil) with 2% glucose (w/v) and independent colonies were isolated and amplified.\nas §1\nAfter yeast delivery, assay plates were incubated under humidified conditions at 30° C. for 24 to 40 h. ApoE4 rescue experiments were stopped at 24 h, aSyn experiments at 40 h, Ole1 at 24 h, and SCD1/SCD5 at 40 h. The growth of yeast was monitored by reading the OD600 of each well using a microplate reader (Perkin Elmer EnVision™). For model rescue experiments, raw data were processed by background subtracting and calculating a fold-change relative to DMSO control [(EXP-0.035)/(DMSO-0.035)—where 0.035 is the OD600 contributed by an empty well containing 30 μL of media alone]. For growth inhibition of wild-type cells, raw data were processed by background subtracting and converting values to a percent of the nontreated condition for that strain [(EXP-0.035)/(DMSO-0.035)×100%]."}, "[3]": {"test_system": "human iPSC-derived neurons harboring the alpha-synuclein A53T mutation", "test": "Neuron survival assay, human iPSC-derived neurons harboring the alpha-synuclein A53T mutation", "details": "100 nM and 30 nM; relative to DMSO controls in A53T neurons; 8 to 10 d", "experimental": "FIG. 15 is a graph showing that SCD inhibition with CAY10566 reduced the cumulative risk of death in human iPSC-derived neurons harboring the alpha-synuclein A53T mutation. Human iPSC cells harboring the alpha-synuclein A53T mutation or an isogenic control line in which the mutation was corrected to wild-type were trans-differentiated into neurons. Single cells were evaluated for survival (based on overall morphology) over the course of the 192 hour study. Cell survival data was analyzed by a non-parametric Kaplan-Meier procedure to estimate survival probability, which is shown as the cumulative risk of cell death. (HR, hazard ratio; P, p value (*<0.05, ns=not significant (>0.05)); CI, confidence interval; N, number of neurons tracked). […]\nTransfected neuronal cultures were imaged at 12-24 h intervals for the indicated number of days by robotic microscopy. Fluorescence images were acquired with a Nikon Eclipse Ti microscope equipped with a motorized stage, 20× extra-long working distance (ELWD) objective, and an Andor Zyla cMOS camera. […] Images were processed and analyzed with custom-made scripts in R and ImageJ software. The lifetimes of individual neurons were determined by tracking fluorescently-labeled neurons in ImageJ. Neuronal death was determined to occur upon incidence of RFP signal loss or rupture of cell body. […]"}},
  "data": [
    {"smiles": "Cc1nnc(-c2ccc(N3CCC(Oc4cc(F)ccc4Cl)CC3)nn2)o1", "note": "[CAY10566]", "values": [
      {"measurement": "half-maximal inhibitory concentration (IC50), SCD1 humanized strain", "setting": "[1]", "result": "low nanomolar"},
      {"measurement": "half-maximal inhibitory concentration (IC50), SCD5 humanized strain", "setting": "[2]", "result": "low nanomolar"},
      {"measurement": "risk of neuron death", "setting": "[3]", "result": "significantly reduced"}
    ]}
  ]
}
